From patent US20170096402A1, “5-(HETERO)ARYLPYRIDAZINONES AND THEIR USE AS HERBICIDES” (BAYER CROPSCIENCE AKTIENGESELLSCHAFT, priority 2014, published 2017)

Columns and labels:
wheat = experiment: Pre-emergence method, damage to crop plants; assay type: in vivo
Excerpt: Seeds of monocotyledonous and dicotyledonous weed plants and crop plants are laid out in wood-fiber pots in sandy loam and covered with soil. The compounds of the invention, formulated in the form of wettable powders (WP) or as emulsion concentrates (EC), are then applied to the surface of the covering soil in the form of an aqueous suspension or emulsion at a water application rate equating to 600 to 800 I/ha, with addition of 0.2% wetting agent. After the treatment, the pots are placed in a greenhouse and kept under good growth conditions for the trial plants. The damage to the test plants is scored visually after a test period of 3 weeks by comparison with untreated controls (herbicidal activity in percent (%): 100% activity=the plants have died, 0% activity=like control plants).

[1] = system: Triticum aestivum (wheat); experiment: Post-emergence method, damage to crop plants (also comparative experiments, TRZAS); assay type: in vivo
Protocol: Seeds of monocotyledonous and dicotyledonous weed and crop plants are laid out in sandy loam in wood-fiber pots, covered with soil and cultivated in a greenhouse under good growth conditions. 2 to 3 weeks after sowing, the test plants are treated at the one-leaf stage. The compounds of the invention, formulated in the form of wettable powders (WP) or as emulsion concentrates (EC), are then sprayed onto the green parts of the plants in the form of an aqueous suspension or emulsion at a water application rate equating to 600 to 800 I/ha, with addition of 0.2% wetting agent. After the test plants have been left to stand in the greenhouse under optimal growth conditions for about 3 weeks, the action of the preparations is assessed visually in comparison to untreated controls (herbicidal action in percent (%): 100% activity=the plants have died, 0% activity=like control plants).

[2] = pre-emergence, 320 g per hectare, 3 weeks
[3] = post-emergence, 20 g per hectare, about 3 weeks

SMILES | damage in wheat (wheat; [2]) | damage in wheat [1, 3] | damage in wheat (wheat; in vivo) | damage in wheat ([1]; in vivo)
Cc1c(-c2cnn(C)c(=O)c2O)ccc(C(F)(F)F)c1SCC1CC1 [1-553] | no damage | no damage | – | –
Cc1c(-c2cnn(C)c(=O)c2O)ccc(C(F)(F)F)c1[S+]([O-])CC1CC1 (centres unmarked) [1-554] | – | no damage | – | –
Cc1c(-c2cnn(C)c(=O)c2O)ccc(C(F)(F)F)c1S(=O)(=O)CC1CC1 [1-555, 5-{3-[(cyclopropylmethyl)sulfonyl]-2-methyl-4-(trifluoromethyl)phenyl}-4-hydroxy-2-methylpyridazin-3(2H)-one] | – | – | no damage | no damage
COCCSc1c(C(F)(F)F)ccc(-c2cnn(C)c(=O)c2O)c1C [1-1069] | no damage | no damage | – | –
COCC[S+]([O-])c1c(C(F)(F)F)ccc(-c2cnn(C)c(=O)c2O)c1C (centres unmarked) [1-1070] | no damage | no damage | – | –
COCCS(=O)(=O)c1c(C(F)(F)F)ccc(-c2cnn(C)c(=O)c2O)c1C [1-1071] | no damage | no damage | – | –
